Assay [1] in a line: Ferric reducing antioxidant power (FRAP) assay. Particulars: 37 °C, 30 min, 593 nm; FeSO4 standard curve; mean ± SD, n=3. As to the method: The FRAP of extracts and fractions were examined according to Kadum et al. method with slight modifications. […] A volume of 10 μL of methanol extract or fractions was transferred into 96-well microplates, followed by addition of 200 μL FRAP reagent and incubation at 37 °C for 30 min. The absorbance was checked through microplate reader (SPECTRAmax PLUS) at 593 nm. The absorbances of ferrous sulfate solution (FeSO4·7H2O), with a range of concentrations between 0.1 and 1 mM were used for plotting a calibration curve. The ascorbic acid was used as positive control and FRAP was presented as mM Fe (II)/g extract for extracts and mM Fe (II)/g fraction for fractions.

Assay [2] can be described thus: DPPH free radical scavenging assay. The note with it: 30 min in dark, 517 nm; mean ± SD, n=3. As to the method: The DPPH assay was conducted in accordance with Lee et al. method. Initially, 100 µL of DPPH (5.9 mg in 100 mL ethanol) was mixed with 50 µL of the extracts or fractions. The mixtures were then kept in dark for 30 min at room temperature. The absorbance was measured using microplate reader at 517 nm. Quercetin was used as a positive control in the assay. The scavenging activity was calculated using the equation Scavenging Activity (%) = [(Ac – As)/Ac] × 100%, where (Ac) is the absorbance of the blank reagent while (As) is the absorbance of the tested samples. The analysis was performed in triplicates and the results were described as IC50 value.

As to `O=C1O[C@H]([C@@H](O)CO)C(O)=C1O` [Ascorbic acid], the FRAP in assay [1] is given as 180.64 ± 0.01 mmol Fe (II)/g Extract.
Take `O=c1c(O)c(-c2ccc(O)c(O)c2)oc2cc(O)cc(O)c12` [Quercetin]: the “DPPH IC50” value in assay [2] is reported as 8.6 ± 0.70 µg/mL.

The values are drawn from publication PMC8398081, “Antioxidant Activity, α-Glucosidase Inhibition and UHPLC–ESI–MS/MS Profile of Shmar (Arbutus pavarii Pamp)” (Plants, 2021).
